Reference: patent US20160022751A1, “NOVEL COMPOSITION FOR TREATING ALZHEIMER'S DISEASE AND IMPROVING COGNITIVE FUNCTION OF ALZHEIMER'S PATIENTS” (GANGNEUNG-WONJU NATIONAL UNIVERSITY INDUSTRY ACADEMY …, priority 2014, published 2016)

What was measured:
Type in all cases: cell-based, mouse
MAP-2 [1] = test: MAP-2 mRNA expression in N2a cells (real-time RT-PCR); conditions: 5 μg/ml (FIG. 8)
Method: Specifically, total RNA extracts from N2a cells were prepared using the Trizol method (Invitrogen, USA) and cDNA was synthesized from RNA by reverse transcription of 1 μg of total RNA using a reverse transcription system (Improm-II, Promega, USA) and oligo dT primers in a total volume of 20 μL. PCR amplification was performed using the primers described in Table 2 (Bioneer, Korea). Quantitative real-time PCR reactions were run on a Rotor-Gene 6000 (Corbett Research, Australia) using SensiMix™ SYBR Hi-ROX Kit (Bioline, U.K.) in 20 μL reaction mixtures. Each real-time-PCR master mix contained 10 μL 2× enzyme master mix, 7.0 μL RNase free water, 1 μL of each primer (10 pM each), and 1 μL diluted template. The PCR was performed with an initial pre-incubation step for 15 min at 95° C., followed by 45 cycles of 95° C. for 15 s, annealing at 52° C. for 15 s, and extension at 72° C. for 10 s. Melting curve analysis was used to confirm formation of the expected PCR product, and products from all assays were additionally tested with 1.2% agarose gel electrophoresis to confirm the correct lengths. […] Relative sample expression levels were calculated using Rotor-Gene 6000 Series Software 1.7, and were expressed relative to β-actin and corrected for between-run variability. Data for the experimental samples were expressed as a fold unit the internal control gene. […]

MAP-2 [2] = test: MAP-2 protein immunocytochemistry in N2a cells; conditions: compared with NGF (FIG. 9A)
Method: Followed by the RT-PCR analysis, the present inventor investigated whether ginsenosides Re and Rd induce the expression of MAP-2 and p75 and the differentiation of neurons actually, via immunocytochemistry and morphological analysis using optical microscopic observation.
Specifically, Cultured N2a cells were fixed in 4% paraformaldehyde (in PBS) for 15 min, washed twice with PBS supplemented with 100 mM glycine for 5 min, and incubated with permeabilization buffer consisting of 0.1% Triton X-100 (Sigma-Aldrich, USA) in PBS for 30 min at room temperature. Blocking was performed with 1% bovine serum albumin (BSA, Sigma-Aldrich, USA) for 30 min at room temperature. Then Microtubule-Associated Protein-2 (MAP-2) or VAChT mouse monoclonal antibody 1:200 (Santa Cruz Biotechnology, USA) was added to 1% BSA in PBS with Tween 20 (PBST) and incubated for 2 h at room temperature. Cells were then washed three times with PBS before fluorescein isothiocyanate (FITC)-conjugated anti-mouse immunoglobulin G (IgG) 1:200 (Cell Signaling Technology, USA) was added to 1% BSA for 1 h at room temperature. The cells were rinsed and counterstained with 4,6-diamidino-2-phenylindole (DAPI, Sigma-Aldrich) for 10 min, followed by two PBS washes. […]

NGFR (p75) = NGFR (p75) mRNA expression in N2a cells (quantitative RT-PCR); conditions: N2a cells (FIG. 13)
From the text: Since NGF-Trk signal pathway upregulates ChAT and VAChT, it is important to know whether ginsenosides Rd and Re regulate Trk activity directly or at least indirectly. Therefore, the inventor investigated whether the expression of ChAT and VAChT was blocked by treating K252a, an inhibitor against protein kinase C (PKC) and Trk together with ginsenoside Rd or Re, in order to determine more closely whether the expression of cholinergic surface markers and the differentiation of neurons by the treatment of ginsenosides Rd and Re are caused whereby they act NGF-TrkA pathway directly. Particularly, N2a cells were treated with or without K252a (50 nM) in the presence of NGF (100 ng/mL), Re (5 μg/mL) or Rd (5 μg/mL) for 48 h. Total RNA and protein lysates were isolated as described in the Example 4-1 (FIG. 12). […] In addition, the present inventor performed quantitative RT-PCR in order to verify whether the treatment of ginsenosides Rd and Re affect the expression of NGF and NGFR in N2a cells.

SMILES	expression of MAP-2 mRNA (MAP-2 [1])	production of MAP-2 protein (MAP-2 [2])	NGFR (p75) mRNA level (NGFR (p75))
CC(C)=CCC[C@](C)(O[C@@H]1O[C@H](CO)[C@@H](O)[C@H](O)[C@H]1O)[C@H]1CC[C@]2(C)[C@@H]1[C@H](O)C[C@@H]1[C@@]3(C)CC[C@H](O[C@@H]4O[C@H](CO)[C@@H](O)[C@H](O)[C@H]4O[C@@H]4O[C@H](CO)[C@@H](O)[C@H](O)[C@H]4O)C(C)(C)[C@@H]3CC[C@]12C [ginsenoside Rd]	significantly increased	stimulated effectively the production of MAP-2 protein	significantly increased
CC(C)=CCC[C@](C)(O[C@@H]1O[C@H](CO)[C@@H](O)[C@H](O)[C@H]1O)[C@H]1CC[C@]2(C)[C@@H]1[C@H](O)C[C@@H]1[C@@]3(C)CC[C@H](O)C(C)(C)[C@@H]3[C@@H](O[C@@H]3O[C@H](CO)[C@@H](O)[C@H](O)[C@H]3O[C@@H]3O[C@@H](C)[C@H](O)[C@@H](O)[C@H]3O)C[C@]12C [ginsenoside Re]	significantly increased	stimulated effectively the production of MAP-2 protein	significantly increased
